Among the data in patent US8691991B2 (priority 2004, dated 2014) are IC50 values, retold here.

In the first test the test system is HIV-1 (strain IIIB). Kind of test: MT4 cell assay: antiviral HIV activity (HIV-induced cytopathic effect). The format is cell-based. The conditions noted are these: Human immunodeficiency virus 1, IIIB, control and standard, propidium iodide readout, tested 0.01 to 1 μM in every assay, read-out: expected range of IC50 values. The protocol:
Antiviral HIV activity and compound-induced cytotoxicity were measured in parallel by means of a propidium iodide based procedure in the human T-cell lymphotropic virus transformed cell line MT4. Aliquots of the test compounds were serially diluted in medium (RPMI 1640, 10% fetal calf serum (FCS), and gentamycin) in 96-well plates (Costar 3598) using a Cetus Pro/Pette. Exponentially growing MT4 cells were harvested and centrifuged at 1000 rpm for 10 min in a Jouan centrifuge (model CR 4 12). Cell pellets were resuspended in fresh medium (RPMI 1640, 20% FCS, 20% IL-2, and gentamycin) to a density of 5×10^5 cells/ml. Cell aliquots were infected by the addition of HIV-1 (strain IIIB) diluted to give a viral multiplicity of infection of 100×TCID50. […]
For propidium iodide readout, 27 μl of 5% Nonidet-40 was added to each well of the incubation plate. […] The plates were analyzed in an automated assay instrument (Screen Machine, Idexx Laboratories). […]
For MTS readout, 20 μl CellTiter 96 AQ One Solution reagent (Promega #G3582) was added to each well. At 75 minutes following the addition of MTS reagent, absorbance was read at […] using a Tecan Sunrise 96-well plate reader. […]
For each assay plate, the results (relative fluorescence units, rfU, or OD values) of wells containing uninfected cells or infected cells with no compound were averaged, respectively. […]
The IC50 is the concentration at which inhibition is half-maximal. Take `Cc1cn([C@H]2C[C@H](N=[N+]=[N-])[C@@H](CO)O2)c(=O)[nH]c1=O` [3′-azido-3′-deoxythymidine]: the IC50 was in the range of 40 to 120 nM.

In a further test the test system is Pseudotyped HIV vector. Kind of test: Pseudotyped HIV vector expressing luciferase reporter assay. The format is cell-based. To be noted: Human immunodeficiency virus 1. The method, then: Pseudotyped HIV Vector Expressing Luciferase Reporter Assay
Expression of luciferase reporter following viral integration was performed essentially as described in Jármy, G. et al., J. Medical Virology, 64:223-231, 2001.
In general terms: Reporter assays use an easily measured gene product as a stand-in for the process of interest.
`COCCNC(=O)c1c(O)c2ncc(Cc3ccc(F)cc3)cc2n(CC(=O)N2CCOCC2)c1=O` [Example 84, 7-[(4-Fluorophenyl)methyl]-4-hydroxy-N-[2-(methyloxy)ethyl]-1-[2-(4-morpholinyl)-2-oxoethyl]-2-oxo-1,2-dihydro-1,5-naphthyridine-3-carboxamide] showed an IC50 of less than 10 nM. The same measure, in the same setting: the value for `COCCN(C)C(=O)Cn1c(=O)c(C(=O)NCC(C)O)c(O)c2ncc(Cc3ccc(F)cc3)cc21` (racemic) [Example 106, (±)-7-[(4-Fluorophenyl)methyl]-4-hydroxy-N-[(2-hydroxypropyl]-1-(2-{methyl[2-(methyloxy)ethyl]amino}-2-oxoethyl)-2-oxo-1,2-dihydro-1,5-naphthyridine-3-carboxamide] was less than 10 nM. Same read-out and setting: in the case of `CN(C)C(=O)Cn1c(=O)c(C(=O)NCCN2CCOCC2)c(O)c2ncc(Cc3ccc(F)cc3)cc21` [Example 91, 1-[2-(Dimethylamino)-2-oxoethyl]-7-[(4-fluorophenyl)methyl]-4-hydroxy-N-[2-(4-morpholinyl)ethyl]-2-oxo-1,2-dihydro-1,5-naphthyridine-3-carboxamide] it was 10 to 25 nM; in that of `CNC(=O)Cn1c(=O)c(C(=O)NCCOC)c(O)c2ncc(Cc3ccc(F)cc3)cc21` [Example 465, 7-[(4-Fluorophenyl)methyl]-4-hydroxy-1-[2-(methylamino)-2-oxoethyl]-N-[2-(methyloxy)ethyl]-2-oxo-1,2-dihydro-1,5-naphthyridine-3-carboxamide], less than 10 nM. On the same count and under the same terms, the value for `COCCNC(=O)c1c(O)c2ncc(Cc3ccc(F)cc3)cc2n(CC(=O)N(C)C)c1=O` [Example 89, 1-[2-(Dimethylamino)-2-oxoethyl]-7-[(4-fluorophenyl)methyl]-4-hydroxy-N-[2-(methyloxy)ethyl]-2-oxo-1,2-dihydro-1,5-naphthyridine-3-carboxamide] was less than 10 nM. Molecule `Cn1c(=O)c(C(=O)NCCCN2CCOCC2)c(O)c2ncc(Cc3ccc(F)cc3)cc21` [Example 97, 7-[(4-Fluorophenyl)methyl]-4-hydroxy-1-methyl-N-[3-(4-morpholinyl)propyl]-2-oxo-1,2-dihydro-1,5-naphthyridine-3-carboxamide] registered a 50% inhibitory concentration (IC50) of less than 10 nM. Still for that read-out and setting: in the case of `COCCNC(=O)c1c(O)c2ncc(Cc3ccccc3)cc2n(CC2CC2)c1=O` [Example 54, 7-Benzyl-1-(cyclopropylmethyl)-4-hydroxy-N-(2-methoxyethyl)-2-oxo-1,2-dihydro-1,5-naphthyridine-3-carboxamide] it was less than 10 nM; in that of `CCn1c(=O)c(C(=O)N[C@@H](C)CO)c(O)c2ncc(Cc3ccc(F)cc3)cc21` [Example 124, Sodium 1-ethyl-7-[(4-fluorophenyl)methyl]-3-({[(1S)-2-hydroxy-1-methylethyl]amino}carbonyl)-2-oxo-1,2-dihydro-1,5-naphthyridin-4-olate], less than 10 nM; in that of `COCCNC(=O)c1c(O)c2ncc(Cc3ccc(F)cc3)cc2[nH]c1=O` [Example 2, 7-(4-Fluorobenzyl)-4-hydroxy-N-(2-methoxyethyl)-2-oxo-1,2-dihydro-1,5-naphthyridine-3-carboxamide], less than 10 nM. The same measure, in the same setting: the value for `CCN(CC)CCNC(=O)c1c(O)c2ncc(Cc3ccccc3)cc2[nH]c1=O` [N-[2-(Diethylamino)ethyl]-4-hydroxy-2-oxo-7-(phenylmethyl)-1,2-dihydro-1,5-naphthyridine-3-carboxamide, reference compound] was more than 150 nM; that for `O=C(NCCCN1CCCC1=O)c1c(O)c2ncc(Cc3ccc(F)cc3)cc2[nH]c1=O` [Example 28] was less than 10 nM; that for `O=C(NC1CC1)c1c(O)c2ncc(Cc3ccc(F)cc3)cc2n(CCN2CCCC2=O)c1=O` [Example 9, N-Cyclopropyl-7-(4-fluorobenzyl)-4-hydroxy-2-oxo-1-[2-(2-oxopyrrolidin-1-yl)ethyl]-1,2-dihydro-1,5-naphthyridine-3-carboxamide] was less than 10 nM. `O=C(NCCN1CCOCC1)c1c(O)c2ncc(Cc3ccc(F)cc3)cc2n(CC(=O)N2CCOCC2)c1=O` [Example 83, 7-[(4-Fluorophenyl)methyl]-4-hydroxy-N-[2-(4-morpholinyl)ethyl]-1-[2-(4-morpholinyl)-2-oxoethyl]-2-oxo-1,2-dihydro-1,5-naphthyridine-3-carboxamide] returned an IC50 of 10 to 25 nM. The molecule `CCOCCNC(=O)c1c(O)c2ncc(Cc3ccc(F)cc3)cc2n(CC(=O)N(C)CCOC)c1=O` [Example 107, N-[2-(ethyloxy)ethyl]-7-[(4-fluorophenyl)methyl]-4-hydroxy-1-(2-{methyl[2-(methyloxy)ethyl]amino}-2-oxoethyl)-2-oxo-1,2-dihydro-1,5-naphthyridine-3-carboxamide] had an IC50 of less than 10 nM. The same measure, in the same setting: in the case of `COCCNC(=O)c1c(O)c2ncc(Cc3ccc(F)cc3)cc2n(CC(=O)N(C)CCOC)c1=O` [Example 104, 7-[(4-Fluorophenyl)methyl]-4-hydroxy-1-(2-{methyl[2-(methyloxy)ethyl]amino}-2-oxoethyl)-N-[2-(methyloxy)ethyl]-2-oxo-1,2-dihydro-1,5-naphthyridine-3-carboxamide] it was less than 10 nM; in that of `COCCNC(=O)c1c(O)c2ncc(Cc3ccc(F)cc3)cc2n(Cc2nccn2C)c1=O` [Example 467, 7-[(4-Fluorophenyl)methyl]-4-hydroxy-1-[(1-methyl-1H-imidazol-2-yl)methyl]-N-[2-(methyloxy)ethyl]-2-oxo-1,2-dihydro-1,5-naphthyridine-3-carboxamide], less than 10 nM; in that of `Cn1c(=O)c(C(=O)NCCCN2CCCC2=O)c(O)c2ncc(Cc3ccc(F)cc3)cc21` [Example 99, 7-[(4-Fluorophenyl)methyl]-4-hydroxy-1-methyl-2-oxo-N-[3-(2-oxo-1-pyrrolidinyl)propyl]-1,2-dihydro-1,5-naphthyridine-3-carboxamide], less than 10 nM. As to `COCCNC(=O)c1c(O)c2ncc(Cc3ccc(F)cc3)cc2n(CC(=O)N2CCN(C)CC2)c1=O` [Example 102, 7-[(4-Fluorophenyl)methyl]-4-hydroxy-N-[2-(methyloxy)ethyl]-1-[2-(4-methyl-1-piperazinyl)-2-oxoethyl]-2-oxo-1,2-dihydro-1,5-naphthyridine-3-carboxamide], the half-maximal inhibitory concentration (IC50) was less than 10 nM.

Still in this test, the particulars now being: luciferase reporter following viral integration; read-out: IC50.
In the case of `C[C@H](O)CNC(=O)c1c(O)c2ncc(Cc3ccc(F)cc3)cc2n(CCN2CCCC2=O)c1=O` [Example 428, 7-(4-Fluorobenzyl)-4-hydroxy-N-[(2S)-2-hydroxypropyl]-2-oxo-1-[2-(2-oxopyrrolidin-1-yl)ethyl]-2-dihydro-1,5-naphthyridine-3-carboxamide], the IC50 is less than 10 nM.
